Patent publication US20250042897A1, “HETEROCYCLIC COMPOUNDS AS TRIGGERING RECEPTOR EXPRESSED ON MYELOID CELLS 2 AGONISTS AND METHODS OF USE” (Vigil Neuroscience, Inc., priority 2021, published 2025)

Target: T1, human TREM2 (Homo sapiens, UniProt Q9NZC2)
T1 construct: expressed in transfected cells; host or cells: HEK293T
Test: hTREM2 agonist potency by cellular Syk phosphorylation (AlphaLisa) in HEK293T-hTREM2 cells
Type: cell-based
Conditions: Table D-2; HEK293 cells expressing human TREM2 and DAP12; pSyk AlphaLisa; 45 minutes at room temperature
Method: In Vitro Measurement of Triggering Receptor Expressed on Myeloid Cells 2 Activity Using Cellular Phosphorylation of Spleen Tyrosine Kinase (“Syk”) Assays
Measurement of TREM2 agonist potency was done using a HEK cell line expressing human TREM2 and DAP12 (HEK293T-hTREM2 cells). Binding of small molecules to, and activation of, TREM2 increases the phosphorylation of Syk. The resultant levels of Syk phosphorylation are measured using a commercial AlphaLisa reagent kit. To perform the assay, HEK-hTREM2 cells were plated at 14,000 cells per well in a 384 well plate, in 25 μL of complete growth media and incubated at 37° C., 5% CO2 for 20-24 hours.
Prior to the assay, test compounds were diluted in the 384 well plates in assay buffer and allowed to equilibrate for 30 minutes. Growth media was removed from cell plates by inversion on blotting paper, and 25 μL of test articles in assay buffer was added to cells. Cells were incubated for 45 minutes at room temperature. After 45 minutes, assay buffer was removed and 10 μL of lysis buffer was added. Plates were shaken for 20 minutes at 350 RPM at room temperature. After complete lysis, AlphaLisa reagents were added to the lysate, and fluorescence intensity was measured using a Perkin Elmer Envision plate reader. Intensities were used to generate a standard curve, and % activation was calculated. Curve fitting was performed using Prism v9 software, log (agonist) vs response-variable slope (four parameters), and EC50s were calculated from the curve fit.
The results presented in Table D have been generated with the in vitro assay described above. This assay may be used to test any of the compounds described herein to assess and characterize a compound's ability to act as an agonist of TREM2.

T1 sequence (Q9NZC2 19-230): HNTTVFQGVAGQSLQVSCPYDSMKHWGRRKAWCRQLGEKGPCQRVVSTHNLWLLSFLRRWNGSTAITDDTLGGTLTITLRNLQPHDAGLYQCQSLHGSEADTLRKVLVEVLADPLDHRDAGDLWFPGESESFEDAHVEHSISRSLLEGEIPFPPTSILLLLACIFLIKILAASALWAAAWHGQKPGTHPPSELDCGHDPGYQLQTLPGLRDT
T1 sequence (O43914 22-113 partner): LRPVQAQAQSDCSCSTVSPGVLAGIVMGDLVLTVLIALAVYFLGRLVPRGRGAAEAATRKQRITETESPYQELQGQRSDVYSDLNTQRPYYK

EC50 [nM]	SMILES
≤ 50	Cn1ncc2c(-c3ccc(Cl)cc3F)nc([C@H]3CCO[C@@H](c4cnn(C5CC5)c4)C3)cc2c1=O [I-48, 5-(4-chloro-2-fluoro-phenyl)-7-[(2R,4S)-2-(1-cyclopropylpyrazol-4-yl)tetrahydropyran-4-yl]-2-methyl-pyrido[3,4-d]pyridazin-1-one]
≤ 50	Cc1nc2nc([C@H]3CCO[C@@H](c4cnn(C5CC5)c4)C3)cc(-c3ccc(F)cc3F)c2c(=O)n1C (single isomer, unassigned) [I-40]
≤ 50	CCn1ncc2c(-c3ccc(Cl)cc3F)nc(N3C[C@@H](C)O[C@@H](c4cnn(C5CC5)c4)C3)nc2c1=O [I-193, 4-(4-chloro-2-fluorophenyl)-2-((2S, 6R)-2-(1-cyclopropyl-1H-pyrazol-4-yl)-6-methylmorpholino)-7-ethyl-pyrimido[4,5-d]pyridazin-8 (7H)-one]
50 to 500	Cc1nc2c(-c3ccc(F)cc3F)cc([C@H]3CCO[C@@H](c4cnn(C5CC5)c4)C3)nc2c(=O)n1C [I-120, 6-((2R,4S)-2-(1-cyclopropyl-1H-pyrazol-4-yl)tetrahydro-2H-pyran-4-yl)-8-(2,4-difluorophenyl)-2,3-dimethylpyrido[3,2-d]pyrimidin-4 (3H)-one]
50 to 500	Cn1ncc2c(-c3ccc(C(F)(F)F)cc3F)nc([C@H]3CCO[C@@H](c4cnn(C5CC5)c4)C3)cc2c1=O [I-53, 7-[(2R, 4S)-2-(1-cyclopropylpyrazol-4-yl)tetrahydropyran-4-yl]-5-[2-fluoro-4-(trifluoroomethyl)phenyl]-2-methyl-pyrido[3,4-d]pyridazin-1-one]
≤ 50	C[C@@H]1CN(c2nc(-c3ccc(F)cc3F)c3ncn(C)c(=O)c3n2)C[C@H](c2cnn(C3CC3)c2)O1 [I-163, 6-((2S,6R)-2-(1-cyclopropyl-1H-pyrazol-4-yl)-6-methylmorpholino)-8-(2,4-difluorophenyl)-3-methylpyrimido[5,4-d]pyrimidin-4 (3H)-one]
50 to 500	Cn1ncc2c(-c3ccc(C(F)(F)F)cc3F)nc(C3CCO[C@@H](c4cnn(C5CC5)c4)C3)nc2c1=O (stereo partly drawn) [I-84, 2-((2R)-2-(1-cyclopropyl-1H-pyrazol-4-yl)tetrahydro-2H-pyran-4-yl)-4-(2-fluoro-4-(trifluoromethyl)phenyl)-7-methylpyrimido[4,5-d]pyridazin-8 (7H)-one]
≤ 50	C[C@@H]1CN(c2nc(-c3cc(F)c(F)cc3F)c3cnn(C)c(=O)c3n2)C[C@H](c2cnn(C3CC3)c2)O1 [I-218, 2-((2S,6R)-2-(1-cyclopropyl-1H-pyrazol-4-yl)-6-methylmorpholino)-7-methyl-4-(2,4,5-trifluorophenyl)pyrimido[4,5-d]pyridazin-8 (7H)-one]
500 to 3000	Cn1ncc2c(-c3ccc(F)cc3F)nc(C3CCO[C@@H](c4cn(C5CC5)[n+](C)c4)C3)nc2c1=O (stereo partly drawn) [I-157, 2-[(2R)-2-(1-cyclopropyl-2-methyl-pyrazol-2-ium-4-yl)tetrahydropyran-4-yl]-4-(2,4-difluorophenyl)-7-methyl-pyrimido[4,5-d]pyridazin-8-one]
50 to 500	Cn1ncc2c(-c3ccc(Cl)cc3F)nc(N3CCOC(c4cnn(C5CC5)c4)C3)cc2c1=O (stereo not shown) [I-45, 5-(4-chloro-2-fluorophenyl)-7-(2-(1-cyclopropyl-1H-pyrazol-4-yl)morpholino)-2-methylpyrido[3,4-d]pyridazin-1 (2H)-one]
≤ 50	Cc1nc2c(-c3ccc(F)cc3F)nc(N3C[C@@H](C)O[C@@H](c4cnn(C5CC5)c4)C3)nc2c(=O)n1C [I-90, 6-((2S,6R)-2-(1-cyclopropyl-1H-pyrazol-4-yl)-6-methylmorpholino)-8-(2,4-difluorophenyl)-2,3-dimethylpyrimido[5,4-d]pyrimidin-4 (3H)-one]
500 to 3000	Cc1nc2nc([C@@H]3CCO[C@H](c4cnn(C5CC5)c4)C3)cc(-c3ccc(F)cc3F)c2c(=O)n1C (single isomer, unassigned) [I-42]
≤ 50	Cn1ncc2c(-c3ccc(Cl)cc3F)nc(N3C[C@@H](C4CC4)O[C@@H](c4cnn(C5CC5)c4)C3)nc2c1=O (single isomer, unassigned) [I-183]
